Counter-ions that a name gives are not always drawn. Like-named read-outs stand apart in the source and are kept apart here.
Tested on: panel of 240 cancer cell lines
Assay: Proliferation in a broad panel of 240 cancer cell lines, 2D culture (Eurofins Panlabs Oncopanel)
Assay type: cell-based
Protocol: Cell lines used in these experiments were obtained from the following sources and were cultured according to conditions specified by the respective cell banks. […] The cell lines listed above were tested for mycoplasma and were negative. Cells were authenticated by STR method or vendor protocols. All 313 cell lines in the CRIPSR pooled screen were purchased from commercial vendors and were STR authenticated and mycoplasma negative. A broad panel of cancer cell lines was screened in the Eurofins Oncopanel. All cells in this panel were mycoplasma negative and STR verified.

Measured: IC50

NC1CCC(S(=O)(=O)N2C3CCC2CC(NC(=O)c2cc(C4CC4)on2)C3)CC1 [EPZ028862, N-((1R,3R,5S)-8-((1r,4R)-4-aminocyclohexylsulfonyl)-8-aza-bicyclo[3.2.1]octan-3-yl)-5-cyclopropylisoxazole-3-carboxamide hydrochloride]
> 25 µM: Homo sapiens, LS174T, LS-174T, Colon/GI, read-out: IC50 | Homo sapiens, LS-1034, LS1034, Colon/GI, read-out: IC50 | Homo sapiens, MC-IXC, CNS, read-out: IC50 | Homo sapiens, MCF7, MCF7, Breast, read-out: IC50 | Homo sapiens, MDA-MB-231, MDA MB 231, Breast, read-out: IC50 | Homo sapiens, MDA-MB-436, MDA-MB-436, Breast, read-out: IC50 | Homo sapiens, MDA-MB-453, MDA MB 453, Breast, read-out: IC50 | Homo sapiens, MDA-MB-468, MDA MB 468, Breast, read-out: IC50 | Homo sapiens, MEG-01, MEG01, Haematopoietic and lymphoid, read-out: IC50 | Homo sapiens, MES-SA, Soft Tissue, read-out: IC50 | Homo sapiens, MG-63, MG-63, Soft Tissue, read-out: IC50 | Homo sapiens, MHH-PREB-1, MHH-PREB-1, Haematopoietic and lymphoid, read-out: IC50 | Homo sapiens, MIA PaCa-2, Mia PaCa-2, Pancreas, read-out: IC50 | Homo sapiens, MOLT-3, MOLT-3, Haematopoietic and lymphoid, read-out: IC50 | Homo sapiens, MOLT-16, MOLT-16, Haematopoietic and lymphoid, read-out: IC50 | Homo sapiens, MV4-11, MV-4-11, Haematopoietic and lymphoid, read-out: IC50 | Homo sapiens, Malme-3M, MALME3M, Skin, read-out: IC50 | Homo sapiens, MeWo, Skin, read-out: IC50 | Homo sapiens, NALM-6, NALM-6, Haematopoietic and lymphoid, read-out: IC50 | Homo sapiens, NCI-H69, NCI-H69, Lung, read-out: IC50 | Homo sapiens, NCI-H292, NCI-H292, Lung, read-out: IC50 | Homo sapiens, NCI-H295R, Endocrine, read-out: IC50 | Homo sapiens, NCI-H441, NCIH441, Lung, read-out: IC50 | Homo sapiens, NCI-H446, NCIH446, Lung, read-out: IC50 | Homo sapiens, NCI-H460, NCI-H460, Lung, read-out: IC50 | Homo sapiens, NCI-H508, NCI-H508, Colon/GI, read-out: IC50 | Homo sapiens, NCI-H520, NCI-H520, Lung, read-out: IC50 | Homo sapiens, NCI-H596, NCI-H596, Lung, read-out: IC50 | Homo sapiens, NCI-H661, NCI-H661, Lung, read-out: IC50 | Homo sapiens, NCI-H747, NCI-H747, Colon/GI, read-out: IC50 | Homo sapiens, OE19, OE19, Head and Neck, read-out: IC50 | Homo sapiens, OE33, OE33, Head and Neck, read-out: IC50 | Homo sapiens, OVCAR-3, OVCAR3, Female GU, read-out: IC50 | Homo sapiens, PANC-1, PANC-1, Pancreas, read-out: IC50 | Homo sapiens, RKOE6, RKOE6, Colon/GI, read-out: IC50 | Homo sapiens, RL95-2, RL95-2, Female GU, read-out: IC50 | Homo sapiens, RPMI-6666, RPMI 6666, Haematopoietic and lymphoid, read-out: IC50 | Homo sapiens, RPMI-7951, RPMI-7951, Skin, read-out: IC50 | Homo sapiens, RPMI-8226, RPMI 8226, Haematopoietic and lymphoid, read-out: IC50 | Homo sapiens, Raji, Haematopoietic and lymphoid, read-out: IC50 | Homo sapiens, Ramos, Ramos (RA 1), Haematopoietic and lymphoid, read-out: IC50 | Homo sapiens, SAOS-2, SaOS2, Soft Tissue, read-out: IC50 | Homo sapiens, SCC-4, SCC-4, Head and Neck, read-out: IC50 | Homo sapiens, SCC-9, SCC-9, Head and Neck, read-out: IC50 | Homo sapiens, SCC-25, SCC-25, Head and Neck, read-out: IC50 | Homo sapiens, SCaBER, Bladder, read-out: IC50 | Homo sapiens, SHP77, SHP-77, Lung, read-out: IC50 | Homo sapiens, SJRH30, SJRH30, Soft Tissue, read-out: IC50 | Homo sapiens, SJSA-1, SJSA1, Soft Tissue, read-out: IC50 | Homo sapiens, SK-BR-3, SK-BR-3, Breast, read-out: IC50 | Homo sapiens, SK-LMS-1, SK-LMS-1, Soft Tissue, read-out: IC50 | Homo sapiens, SK-MEL3, SK-MEL-3, Skin, read-out: IC50 | Homo sapiens, SK-MEL-1, SK-MEL-1, Skin, read-out: IC50 | Homo sapiens, SK-MEL-28, SK-MEL-28, Skin, read-out: IC50 | Homo sapiens, SK-MES-1, SKMES1, Lung, read-out: IC50 | Homo sapiens, SK-N-AS, CNS, read-out: IC50 | Homo sapiens, SK-N-DZ, CNS, read-out: IC50 | Homo sapiens, SK-N-FI, CNS, read-out: IC50 | Homo sapiens, SK-NEP-1, SK-NEP-1, Kidney, read-out: IC50 | Homo sapiens, SK-OV-3, SKOV3, Female GU, read-out: IC50 | Homo sapiens, SK-UT-1, SK-UT-1, Soft Tissue, read-out: IC50 | Homo sapiens, SNB-19, SNB-19, CNS, read-out: IC50 | Homo sapiens, SNU1, SNU-1, Colon/GI, read-out: IC50 | Homo sapiens, SNU-5, SNU-5, Colon/GI, read-out: IC50 | Homo sapiens, SNU-16, SNU-16, Colon/GI, read-out: IC50 | Homo sapiens, SNU-423, SNU-423, Liver, read-out: IC50 | Homo sapiens, ST486, ST486, Haematopoietic and lymphoid, read-out: IC50 | Homo sapiens, SU.86.86, SU.86.86, Pancreas, read-out: IC50 | Homo sapiens, SW13, SW-13, Endocrine, read-out: IC50 | Homo sapiens, SW48, SW48, Colon/GI, read-out: IC50 | Homo sapiens, SW480, SW480, Colon/GI, read-out: IC50 | Homo sapiens, SW684, SW684, Soft Tissue, read-out: IC50 | Homo sapiens, SW837, SW837, Colon/GI, read-out: IC50 | Homo sapiens, SW872, SW872, Soft Tissue, read-out: IC50 | Homo sapiens, SW900, SW900, Lung, read-out: IC50 | Homo sapiens, SW948, SW948, Colon/GI, read-out: IC50 | Homo sapiens, SW 954, SW954, Female GU, read-out: IC50 | Homo sapiens, SW 962, SW962, Female GU, read-out: IC50 | Homo sapiens, SW982, SW982, Soft Tissue, read-out: IC50 | Homo sapiens, SW1088, SW1088, CNS, read-out: IC50 | Homo sapiens, SW1353, SW1353, Soft Tissue, read-out: IC50 | Homo sapiens, SW1417, SW1417, Colon/GI, read-out: IC50 | Homo sapiens, SW1463, SW1463, Colon/GI, read-out: IC50 | Homo sapiens, SW1783, SW1783, CNS, read-out: IC50 | Homo sapiens, SW-403, SW403, Colon/GI, read-out: IC50 | Homo sapiens, SW-620, SW620, Colon/GI, read-out: IC50 | Homo sapiens, SiHa, Female GU, read-out: IC50 | Homo sapiens, T47D, Breast, read-out: IC50 | Homo sapiens, T98G, CNS, read-out: IC50 | Homo sapiens, TCC-SUP, TCCSUP, Bladder, read-out: IC50 | Homo sapiens, THP-1, Thp1, Haematopoietic and lymphoid, read-out: IC50 | Homo sapiens, U2OS, Soft Tissue, read-out: IC50 | Homo sapiens, U138-MG, U-138MG, CNS, read-out: IC50 | Homo sapiens, U-87 MG, CNS, read-out: IC50 | Homo sapiens, UMUC3, UM-UC-3, Bladder, read-out: IC50 | Homo sapiens, WI-38, Wi38, Lung, read-out: IC50 | Homo sapiens, WiDr, Colon/GI, read-out: IC50 | Homo sapiens, YAPC, Pancreas, read-out: IC50 | Hs766T, Hs 766T, Pancreas, read-out: IC50 | J82, Bladder, read-out: IC50 | JAR, Female GU, read-out: IC50 | KHOS-240S, Soft Tissue, read-out: IC50 | KLE, Female GU, read-out: IC50 | KPL-1, KPL-1, Breast, read-out: IC50 | MT-3, Breast, read-out: IC50 | MX1, Haematopoietic and lymphoid, read-out: IC50 | OCUG-1, OCUG-1, Liver, read-out: IC50 | OE21, OE21, Head and Neck, read-out: IC50 | PC-3, Prostate, read-out: IC50 | RD, Soft Tissue, read-out: IC50 | RKO, Colon/GI, read-out: IC50 | RKOAS451, RKO-AS45-1, Colon/GI, read-out: IC50 | SH-4, Skin, read-out: IC50 | SKO-007, SKO-007, Haematopoietic and lymphoid, read-out: IC50 | SR, Haematopoietic and lymphoid, read-out: IC50 | SW579, SW579, Endocrine, read-out: IC50 | T24, Bladder, read-out: IC50 | TE 381.T, Soft Tissue, read-out: IC50 | U266B1, Haematopoietic and lymphoid, read-out: IC50 | Y79, Eye-retinoblastoma, read-out: IC50 | read-out: anti-proliferative IC50 across the panel of 240 cancer cell lines, 2D culture

— article PMC5983452 (PLoS ONE, 2018)
